Experiment [1] has as its system H3K14 acetylation in HEK293 cells. The experiment is described as follows: Western blot of histone acetylation in HEK293 nuclear extracts: H3K14. The experiment is classed as cell-based, human. As to the method: In order to test whether diacetyl can increase acetylation of histones in vivo, human HEK293 cells were used, which offer a tractable system to prepare nuclear extracts. The cells were exposed to different doses of diacetyl for 2 or 6 hours, and monitored histone acetylation levels by Western blot analysis from nuclear extract. […] The acetylation levels of H3K14 and H4K5 were not affected (FIG. 5A).
Human embryonic kidney 293 (HEK293) cells were grown in 100 mm cell culture dishes with Dulbecco's modified Eagle's medium (DMEM) (10-013, Corning, Manassas, Va.), supplemented with 10% fetal bovine serum (FBS) (26140-079, Gibco, Carlsbad, Calif.) at 37° C. with 5% CO2. Cells that were ˜80% confluent were treated with freshly-prepared medium supplemented with diacetyl at concentrations indicated. In order to prevent diffusion of diacetyl odor from the treatment dishes to the outside environment, the cell culture dishes were put into a custom-made container (155.6×155.6×85.7 mm) with a charcoal filter top. […]
Proteins in the nuclear extracts (60 μg protein) were separated by SDS-PAGE gels (456-1043, Bio-Rad, Hercules, Calif.), transferred onto PVDF membranes (162-0174, Bio-Rad), and incubated with anti-histone antibodies: acetylated H3K9 (1/2000: ab4441, abeam, Cambridge, Mass.), acetylated H3K14 (1/5000: 06-911, EMD Millipore, Billerica, Mass.), acetylated H4K5 (1/2000: 07-327, EMD Millipore). Bound antibody was detected by horseradish peroxidase-conjugated anti-rabbit secondary antibody (1/20000: 1705046, Bio-Rad) and developed using Clarity™ Western ECL Substrate (1705060, Bio-Rad). Signals were detected and captured by ImageQuant™ LAS 4000 mini (GE healthcare, Pittsburgh, Pa.), and band intensities were quantified with ImageJ software. H3K9 acetylation intensity in individual lanes was reported relative to the normalized Mock treatment (Mock H3K9ace/Mock PCNA), and calculated using this formula: Relative H3K9ace intensity for each timepoint=(Diacetyl H3K9ace/diacetyl PCNA)/(Mock H3K9ace/Mock PCNA).

The next experiment concerns the target T1, human HDAC1 (Homo sapiens, UniProt Q13547).
T1 construct: purchased Cayman Chemical 10011563
The experiment is described as follows: Fluorometric HDAC activity assay, purified human HDAC1. The experiment is classed as biochemical. As to the method:
The ability of diacetyl (odor 1) to inhibit human HDAC activity was investigated using in-vitro assays with a human HDAC1 kit.
In order to directly test whether diacetyl acts as an inhibitor of HDACs, in vitro acetylation assays was performed with purified human HDACs. […]
HDAC activity of class I HDACs (HDAC1, 2, 3 and 8) was measured with the fluorometric HDAC Activity Assay kit: HDAC1 (10011563, Cayman Chemical, Ann Arbor, Mich.), HDAC2, HDAC 3 and HDAC 8 (50062, 50073 and 50068, BPS Bioscience, San Diego, Calif.), according to the manufacturer's instructions.

T1 sequence (Q13547 whole entry): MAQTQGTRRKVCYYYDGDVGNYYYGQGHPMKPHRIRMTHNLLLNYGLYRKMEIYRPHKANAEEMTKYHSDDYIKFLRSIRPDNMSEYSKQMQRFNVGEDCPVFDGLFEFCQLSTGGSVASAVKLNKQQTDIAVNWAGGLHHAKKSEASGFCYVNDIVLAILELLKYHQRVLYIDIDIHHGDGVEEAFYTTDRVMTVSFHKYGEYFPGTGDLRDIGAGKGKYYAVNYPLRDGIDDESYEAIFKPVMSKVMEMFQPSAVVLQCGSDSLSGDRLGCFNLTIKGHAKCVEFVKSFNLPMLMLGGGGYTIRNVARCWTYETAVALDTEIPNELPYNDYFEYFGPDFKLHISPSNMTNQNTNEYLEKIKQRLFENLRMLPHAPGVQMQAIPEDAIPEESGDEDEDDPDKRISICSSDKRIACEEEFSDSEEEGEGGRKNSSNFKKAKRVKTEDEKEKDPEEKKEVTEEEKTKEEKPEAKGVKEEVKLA

Usually IC50 stands for the point on the concentration scale where inhibition reaches its midpoint. Read a low IC50 as greater potency. Take `CC(=O)C(C)=O` [diacetyl, 2,3-Butanedione]: the H3K14 acetylation level result was “did not alter” in experiment [1] (1 mM, 2 or 6 hours); “not affected” in experiment [1] (10 mM, 2 hours); “unaffected” in experiment [1] (10 mM, 6 hours). Besides, the “inhibition of human HDAC activity (human HDAC1 kit)” value against human HDAC1 (compared with sodium butyrate, FIG. 1C) was “effective HDAC inhibitor and comparable to sodium butyrate”. The compound further yielded an IC50 against human HDAC1 (purified human HDAC1, n=4-5) of 7.2 mM.

Values taken from patent publication US10537535B2, “Histone deacetylase inhibitors” (The Regents of the University of California, priority 2015, dated 2020).
